In patent US12139508B2, “Steroid derivative regulators, method for preparing the same, and uses thereof” (JIANGSU HANSOH PHARMACEUTICAL GROUP CO., LTD., priority 2018, dated 2024):
Where two headings read alike, the source gives them in different places.

How the values were obtained:
[1] = tested on: forced-swimming mice; assay: In vivo pharmacodynamic test in the forced swimming model in mice; settings: ICR mice; for Mean (immobility, %): 100*floating time/240 s
Description: The antidepressant effect of the compound was evaluated by the forced swimming model in mice.
Male ICR mice (25-35 g) were adapted in the test environment for 3 days before the forced swimming test.
According to the test design, the mice were randomly grouped on the day before the test according to body weight, with 12 mice in each group. Before the test, the compounds of each example were administered intragastrically according to the Tmax thereof in the brain in mice pharmacokinetic test as follows: • 1) Model group (0.5% CMC-Na-1% Tween 80 solution, p.o., 10 mL/kg); • 2) Compounds of Example 2, Example 3, Example 5, Example 6, Example 9, Examples 59-63, Examples 71-73, Example 103, Example 135, Example 137, Example 145 and Example 146 (10 mg/kg, p.o., 10 mL/kg); Example 13 and Example 74 (5 mg/kg, p.o., 5 mL/kg).
When being administered, the compounds of each example were suspended in 0.5% CMC-Na+1% Tween 80 solution to the desired concentration.
0.5-1 hour after administration, ICR mice were placed in a forced swimming device (transparent glass drum (water depth 18 cm, water temperature 25-26° C.), one mouse per tank) and forced to swim for 6 minutes. The forced swimming device recorded the floating time of the ICR mice during the entire 6 minutes, and the data of the latter four minutes were used for data analysis. The mice were taken out immediately after the swimming test, wiped dry and put back in their original cages.
Note: The criterion for determining the immobility time is that the mouse stops struggling in water and floats, and there are only slight limb movements to keep the head floating on the water.
3.4 Data Analysis Floating time percentage=100*floating time/240 s.

[2] = tested on: PTZ-induced epilepsy model in CD-1 mice; assay: In vivo pharmacodynamic test in the PTZ-induced epilepsy model in mice; settings: dose 3 mpk p.o., PTZ 120 mg/kg s.c., 30 min observation
Description: The PTZ-induced epilepsy model in CD-1 mice was established, and the antiepileptic effect of the compounds of Example 3, Example 60, Example 61 and Example 74 was evaluated using this model.
50 male CD-1 mice were purchased from Beijing Vital River Laboratory Animal Technology Co. Ltd. The test animals were adapted at the animal room in the third building of Shanghai ChemPartner Co., Ltd for 7 days before the test. The average body weight of the animals on the test day was 32.2±0.2 grams. Feeding environment: 5 animals/cage, room temperature 23±2° C., 12/12 hours of light and dark cycle, free acess to food and water.
4.2.1 Test Equipments • 1 ml sterile disposable syringe with needle (purchased from Zhejiang Kangdelai Medical Devices Co., Ltd.) • Pipette: Eppendorf Research Plus (100-1000 L) • Vortex mixer: Kylin-Bell Vortex 5 • Ultrasonic instrument: JL-360 ultrasonic cleaner • Balance: METTLER TOLEDO™ XS204 precision balance (note: METTLER TOLEDO™ is a kind of balance used in labs and industry) • Balance: METTLER TOLEDO™ XS6002S electronic balance (note: METTLER TOLEDO™ is a kind of balance used in labs and industry) • Plexiglass box: 25 cm length*15 cm width*15 cm height with one opaque side wall, custom made by Suzhou Fengshi Laboratory Animal Equipment Co., Ltd • 3-channel timer: Oregon/Model NO.WB-388. 4.2.2 Test Animal Grouping • 1) Vehicle/PTZ: 0.5% CMC-Na+1% Tween-80 (10 ml/kg, p.o.), administered 0.5 hr before the PTZ administration; PTZ ([…], s.c.), administered before the test; • 2) 3 mg/kg of the compounds of Examples/PTZ: the compounds of Example 3, Example 60, Example 61 and Example 74 (3 mg/kg, 10 ml/kg, p.o.), administered 0.5 hr before the PTZ administration; PTZ ([…], s.c.), administered before the test. 4.3 Experimental Procedures 4.3.1 Solvent Formulation 1) 0.5% CMC-Na+1% Tween-80 (Administration Volume: 10 mL/Kg):
4.4 Adaptation to the Environment
The mice were randomly grouped, marked and weighed; 10 mice per group. The test compound was administered orally at an administration volume of 10 mL/kg 30-60 minutes before the PTZ administration.
PTZ (120 mg/kg) was administrated subcutaneously before the test observation, and this time point was recorded as the observation start point; after the administration of PTZ, the animal was immediately placed in the observation box and observed for 30 minutes, and the followings were recorded: a) the incubation period of the first clonic seizure, b) the incubation period of the first generalized tonic seizure, c) the number of clonic seizures, d) the number of generalized tonic seizures, e) the time when the animal died.
All measurement data were expressed as Mean±SEM, and analysed with Prism 6.0 statistical software.

[3] = Pharmacokinetic assay in Balb/c mice (plasma and brain tissue); assay type: in vivo; settings: mouse, po, 5 mg/kg p.o., male Balb/c mice; for AUC(0-t): read-out: Area under curve AUC0-t; for AUC(0-inf): read-out: Area under curve AUC0-∞; for half-life: read-out: Half-life t1/2 (converted); for MRT: read-out: Mean residence time MRT; for Tmax: read-out: Peak time tmax; for Cmax: read-out: Plasma concentration Cmax
Procedure, shortened: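 Compound levels in plasma and brain were measured by LC/MS/MS with an internal standard after protein precipitation with acetonitrile. Samples came from overnight-fasted male Balb/c mice given 5 mg/kg p.o., with cardiac blood drawn at 0–24 h. Pharmacokinetic parameters were then calculated.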

Compound	Incubation period of the clonic seizure, Mean ± SEM [2] [s]	Incubation period of the generalized tonic seizure, Mean [2] [s]	Mortality rate [2] [%]	Number of clonic seizures, Mean [2]	Number of generalized tonic seizures, Mean [2]	Time when the animal died, Mean [2] [s]	AUC(0-t) ([3]; brain tissue) [ng·h/mL]	AUC(0-inf) ([3]; brain tissue) [ng·h/mL]	half-life ([3]; brain tissue) [h]	MRT ([3]; brain tissue) [h]	Tmax ([3]; brain tissue) [h]	Cmax ([3]; brain tissue) [ng/mL]	AUC(0-t) ([3]; plasma) [ng·h/mL]	AUC(0-inf) ([3]; plasma) [ng·h/mL]	half-life ([3]; plasma) [h]	MRT ([3]; plasma) [h]	Tmax ([3]; plasma) [h]	Cmax ([3]; plasma) [ng/mL]	further results
C[C@@H]1C[C@H](C(=O)Cn2nccn2)[C@@]2(C)CC[C@H]3[C@@H](CC[C@@H]4C[C@](C)(O)CC[C@@H]43)[C@H]12 [Example 61, 1-((3R,5R,8R,9R,10S,13S,14S,15R,17S)-3-Hydroxy-3,13,15-trimethylhexadecahydro-1H-cyclopenta[a]phenanthren-17-yl)-2-(2H-1,2,3-triazol-2-yl)ethan-1-one]	841.4 ± 179.8	1497.4 ± 124.3	40	1.9 ± 0.4	0.5 ± 0.2	1573.1 ± 117.9	657	676	3.95	1.41	0.5	711	588	605	3.27	1.48	0.5	525	Mean (immobility, %) ([1]; dose 10 mpk p.o.): 35.75%; Immobility time during the latter four minutes compared with that of the model group ([1]; forced swimming): significantly different
Cc1nnn(CC(=O)[C@H]2C[C@@H](C3CC3)[C@H]3[C@@H]4CC[C@@H]5C[C@](C)(O)CC[C@@H]5[C@H]4CC[C@@]32C)n1 [Example 74, 1-((3R,5R,8R,9R,10S,13S,14S,15S,17S)-15-Cyclopropyl-3-hydroxy-3,13-dimethylhexadecahydro-TH-cyclopenta[a]phenanthren-17-yl)-2-(5-methyl-2H-tetrazol-2-yl)ethan-1-one]	635.4 ± 149.9	1506.8 ± 149.8	30	1.8 ± 0.3	0.3 ± 0.2	1618.1 ± 121.3	5850	6510	2.28	3.82	1	1520	7160	8600	3.06	4.59	0.5	2140	Mean (immobility, %) ([1]; dose 5 mpk p.o.): 38.00%
